Positions of bridges follow the written chain, without caps; N, C: chain ends. Non-standard residues stand in square brackets, D forms with d. Residues, ends and D or L forms follow the SMILES beside them. Chains are numbered I, II in the order given. *: point of attachment. Arachidoyl = CCCCCCCCCCCCCCCCCCCC(=O)*; Stearoyl = CCCCCCCCCCCCCCCCCC(=O)*; Dab = NCC[C@H](N)C(=O)O
How the values were obtained:
[1] = tested on: spleen of BALB/c mice; test: In vivo delivery of mRNA with CPPs - reporter levels in the spleen; conditions: for Reporter levels in the spleen (RLU): mRNA, tail vein injection, spleens harvested 16 hours after single injection, whole tissue homogenate
Procedure: FIG. 5: Delivery of mRNA with CPPs in vivo—reporter levels in the spleen. Spleens were harvested post mortem 16 hours post-injection. The reporter levels (RLU) were evaluated from the whole tissue homogenate.
The transfection complexes (CPP/mRNA) were formed using 10 μg of mRNA mixed with each peptide at indicated charge ratios (CRs) in MQ water in a final volume of 100 μl. CRs were calculated theoretically and account for both the positive charges of the peptide and negative charges of the nucleic acid. The transfection complexes (CPP/mRNA and CPP/pDNA) were formed using 50 μg of mRNA mixed with each peptide at indicated charge ratios (CRs) in MQ water in a final volume of 168 μl. The complexes were incubated for 30 minutes at room temperature and then mixed with equal volume of 10% glucose (resulting in a final solution of 5% glucose in a total volume of 200 μl for 10 μg dose groups and 336 μl for 50 μg dose groups) and immediately injected intravenously via the tail vein.
The reporter gene (luciferase) expression levels were evaluated from the tissue homogenate post mortem 16-24 h after single injection.
CPPs and mRNA complexes were injected through the tail vein of BALB/c mice, spleens were harvested 16 hours after the single injection and reporter signal was measured from the whole tissue homogenate (FIG. 5 and Table 5).

[2] = tested on: CHO-K1 cells; test: Delivery of reporter mRNA with CPPs in cell culture (luciferase luminescence 24 h post-transfection); assay type: cell-based; conditions: for Average RLU/mg (reporter levels post-transfection of mRNA): firefly luciferase mRNA, 0.1 μg per well, charge ratio 3:1, serum containing media, 24 h, RLU normalised to total protein in lysate; for Efficiency of mRNA transfection/delivery / Delivery of mRNA compared to NF55: in words; for Efficiency of mRNA transfection/delivery: FIG. 1 / Table 2, cell culture; for Delivery of mRNA compared to NF55: comparator NF55
Procedure: FIG. 1: Delivery of reporter mRNA with CPPs in cell culture—evaluation of reporter levels post-transfection (relative light units normalised to total protein in the cell lysate (RLU/mg)). Naked mRNA treated cells were used as controls and Lipofectamine3000 (LF3000) was used to compare the transfection efficacy with a liposome-based transfection reagent.
Adherent CHO-K1 cells were grown in Dulbecco's Modified Eagle's Medium (DMEM), which were supplemented with 0.1 mM non-essential amino acids, 1.0 mM sodium pyruvate, 100 U/ml penicillin, and […]. For complete media, 10% (final) fetal bovine serum (FBS) was added. Cells were maintained in a humidified incubator at 37 °C, 5% CO2. Cell viability and confluence was assessed daily and the cell density was reduced regularly. For cell counting, we used the CytoSMART cell counter accompanied by 0.4% trypan blue staining prior measurement. The multi-well plates with cell cultures used for experiments were incubated in a humidified incubator at 37 °C, 5% CO2.
For in vitro experiments 0.1 μg of nucleic acid (plasmid DNA (pDNA) or mRNA) was used per 96-well plate well. For CPP/NA complex formation, the diluted NA was mixed with CPP in water. Complexes were formed based on the theoretical charge ratio (CR) of positive charges from the peptide in excess to the negative charges from nucleic acid backbone, at charge ratio 3:1 with peptide in excess. Commercial reagent Lipofectamine3000 (LF3000) was used according to the manufacturer's recommendations for the transfection of adherent cells.
For reporter luminescence (expressed from firefly luciferase encoding mRNA or plasmid pDNA) assessment in adherent cell culture, 10,000 cells per 96-well plate well were seeded in 100 μl of media one day prior to transfection. Shortly before transfection, cell media was replaced with 100 μl of serum containing (10% foetal bovine serum) DMEM media. CPPs and mRNA or pDNA were mixed at a charge ratio 3:1 in ultrapure water and incubated at room temperature before addition to cells in serum containing media. Cells were transfected with 0.1 μg of mLuc per well.
24 hours post-transfection, the media was aspirated, cells were washed with 1×PBS, and 30 μl of lysis buffer (0.1% Triton X100 in 1×PBS) was added. Cells were incubated with lysis buffer for 20 min. to lyse the cells. From the lysate, 20 μl was transferred to a black frame white well 96-well plate for luminescence measurement after addition of substrate luciferin (PerkinElmer) in buffer. The luminescence signal was detected with GloMax® 96 microplate luminometer equipped with GloMax® 1.9.2 software (Promega). RLU values were converted to RLU/mg by normalization to total protein in cell lysate, reflecting total number of cells. For protein detection, a Pierce™ BCA Protein Assay Kit was used.
The present inventors have previously reported CPPs developed from the NickFect (NF) and PepFect (PF) families for plasmid (pDNA), siRNA and miRNA delivery (see, e.g. WO 2020/144317, WO 2010/039088 and WO 2012/113846). With the emergence of mRNA-based therapeutics, it was decided to investigate peptides for their ability to deliver mRNA. It was assumed that CPPs that are efficient for siRNA and miRNA delivery, e.g. histidine containing CPPs (Porosk et. al. (2019)), may be good candidates for the delivery of mRNA. Therefore, CPPs from each main family (NF55-, PF14- and NF70-derived CPPs) were tested for mRNA delivery/transfection. Naked mRNA treated and untreated cells were used as control groups. LF3000 was used to compare the transfection efficacy of liposome-based transfection reagents with the CPPs (FIG. 1).

Compound	Reporter levels in the spleen (RLU) [1]	Average RLU/mg (reporter levels post-transfection of mRNA) [2]	Efficiency of mRNA transfection/delivery [2]	further results
CCCCCCCCCCCCCCCCCC(=O)N[C@@H](C)C(=O)NCC(=O)N[C@@H](Cc1ccc(O)cc1)C(=O)N[C@@H](CC(C)C)C(=O)N[C@@H](CC(C)C)C(=O)NCC(=O)NCC[C@H](N)C(=O)N[C@H](C(=O)N[C@@H](CC(N)=O)C(=O)N[C@@H](CC(C)C)C(=O)N[C@@H](CCCCN)C(=O)N[C@@H](C)C(=O)N[C@@H](CC(C)C)C(=O)N[C@@H](C)C(=O)N[C@@H](C)C(=O)N[C@@H](CC(C)C)C(=O)N[C@@H](C)C(=O)N[C@@H](CCCCN)C(=O)N[C@@H](C)C(=O)N[C@H](C(=O)N[C@@H](CC(C)C)C(N)=O)[C@@H](C)CC)[C@@H](C)CC [NF553]	57 989 RLU	1 750 000 000 RLU/mg	the most efficient	Delivery of mRNA compared to NF55 [2]: improved delivery of mRNA over NF55
CCCCCCCCCCCCCCCCCC(=O)N[C@@H](C)C(=O)NCC(=O)N[C@@H](Cc1ccc(O)cc1)C(=O)N[C@@H](CC(C)C)C(=O)N[C@@H](CC(C)C)C(=O)NCC(=O)NCCCC[C@H](N)C(=O)N[C@H](C(=O)N[C@@H](CC(N)=O)C(=O)N[C@@H](CC(C)C)C(=O)N[C@@H](CCCCN)C(=O)N[C@@H](C)C(=O)N[C@@H](CC(C)C)C(=O)N[C@@H](C)C(=O)N[C@@H](C)C(=O)N[C@@H](CC(C)C)C(=O)N[C@@H](C)C(=O)N[C@@H](CCCCN)C(=O)N[C@@H](C)C(=O)N[C@H](C(=O)N[C@@H](CC(C)C)C(N)=O)[C@@H](C)CC)[C@@H](C)CC [NF554] (I: H-KINLKALAALAKAIL-NH2 / II: Stearoyl-AGYLLG; amide I:1-II:C)	83 650 RLU	1 690 000 000 RLU/mg	the most efficient	Delivery of mRNA compared to NF55 [2]: improved delivery of mRNA over NF55
CCCCCCCCCCCCCCCCCCCCCC(=O)N[C@@H](C)C(=O)NCC(=O)N[C@@H](Cc1ccc(O)cc1)C(=O)N[C@@H](CC(C)C)C(=O)N[C@@H](CC(C)C)C(=O)NCC(=O)NCC[C@H](N)C(=O)N[C@H](C(=O)N[C@@H](CC(N)=O)C(=O)N[C@@H](CC(C)C)C(=O)N[C@@H](CCCCN)C(=O)N[C@@H](C)C(=O)N[C@@H](CC(C)C)C(=O)N[C@@H](C)C(=O)N[C@@H](C)C(=O)N[C@@H](CC(C)C)C(=O)N[C@@H](C)C(=O)N[C@@H](CCCCN)C(=O)N[C@@H](C)C(=O)N[C@H](C(=O)N[C@@H](CC(C)C)C(N)=O)[C@@H](C)CC)[C@@H](C)CC [NF423]	–	556 000 000 RLU/mg	–	–
CCCCCCCCCCCCCCCCCCCC(=O)N[C@@H](C)C(=O)NCC(=O)N[C@@H](Cc1ccc(O)cc1)C(=O)N[C@@H](CC(C)C)C(=O)N[C@@H](CC(C)C)C(=O)NCC(=O)NCCC[C@H](N)C(=O)N[C@H](C(=O)N[C@@H](CC(N)=O)C(=O)N[C@@H](CC(C)C)C(=O)N[C@@H](CCCCN)C(=O)N[C@@H](C)C(=O)N[C@@H](CC(C)C)C(=O)N[C@@H](C)C(=O)N[C@@H](C)C(=O)N[C@@H](CC(C)C)C(=O)N[C@@H](C)C(=O)N[C@@H](CCCCN)C(=O)N[C@@H](C)C(=O)N[C@H](C(=O)N[C@@H](CC(C)C)C(N)=O)[C@@H](C)CC)[C@@H](C)CC [NF410]	36 670 RLU	1 080 000 000 RLU/mg	the most efficient	–
CCCCCCCCCCCCCCCCCC(=O)N[C@@H](C)C(=O)NCC(=O)N[C@@H](Cc1ccc(O)cc1)C(=O)N[C@@H](CC(C)C)C(=O)N[C@@H](CC(C)C)C(=O)NCC(=O)NC[C@H](N)C(=O)N[C@H](C(=O)N[C@@H](CC(N)=O)C(=O)N[C@@H](CC(C)C)C(=O)N[C@@H](CCCCN)C(=O)N[C@@H](C)C(=O)N[C@@H](CC(C)C)C(=O)N[C@@H](C)C(=O)N[C@@H](C)C(=O)N[C@@H](CC(C)C)C(=O)N[C@@H](C)C(=O)N[C@@H](CCCCN)C(=O)N[C@@H](C)C(=O)N[C@H](C(=O)N[C@@H](CC(C)C)C(N)=O)[C@@H](C)CC)[C@@H](C)CC [NF550]	33 032 RLU	441 000 000 RLU/mg	–	–
CCCCCCCCCCCCCCCCCC(=O)N[C@@H](C)C(=O)NCC(=O)N[C@@H](Cc1ccc(O)cc1)C(=O)N[C@@H](CC(C)C)C(=O)N[C@@H](CC(C)C)C(=O)NCC(=O)NCC[C@H](N)C(=O)N[C@@H](CC(C)C)C(=O)N[C@@H](CCCCN)C(=O)N[C@@H](C)C(=O)N[C@@H](CC(C)C)C(=O)N[C@@H](C)C(=O)N[C@@H](C)C(=O)N[C@@H](CC(C)C)C(=O)N[C@@H](C)C(=O)N[C@@H](C)C(=O)N[C@@H](CCCCN)C(=O)N[C@H](C(=O)N[C@@H](CC(C)C)C(N)=O)[C@@H](C)CC [NF436] (I: H-[Dab]LKALAALAAKIL-NH2 / II: Stearoyl-AGYLLG; amide I:1-II:C)	825 783 RLU	380 000 000 RLU/mg	–	Efficacy of mRNA delivery into the spleen in vivo ([1]; in words, FIG. 5 / Table 5): highest reporter levels after mRNA delivery into the spleen in vivo; Delivery of mRNA in vivo compared to NF54 and/or NF55 ([1]; in words, comparator NF54 and/or NF55): significantly improved delivery of mRNA in vivo over both NF54 and NF55; mRNA in vivo spleen delivery efficiency relative to NF70 ([1]; vs NF70, 16 h post-injection): 100 times; mRNA in vivo spleen delivery efficiency relative to PF1452 ([1]; vs PF1452, 16 h post-injection): 43 times
CCCCCCCCCCCCCCCC(=O)N[C@@H](C)C(=O)NCC(=O)N[C@@H](Cc1ccc(O)cc1)C(=O)N[C@@H](CC(C)C)C(=O)N[C@@H](CC(C)C)C(=O)NCC(=O)NCC[C@H](N)C(=O)N[C@H](C(=O)N[C@@H](CC(N)=O)C(=O)N[C@@H](CC(C)C)C(=O)N[C@@H](CCCCN)C(=O)N[C@@H](C)C(=O)N[C@@H](CC(C)C)C(=O)N[C@@H](C)C(=O)N[C@@H](C)C(=O)N[C@@H](CC(C)C)C(=O)N[C@@H](C)C(=O)N[C@@H](CCCCN)C(=O)N[C@@H](C)C(=O)N[C@H](C(=O)N[C@@H](CC(C)C)C(N)=O)[C@@H](C)CC)[C@@H](C)CC [NF422]	–	159 000 000 RLU/mg	–	–
CCCCCCCCCCCCCCCCCCCC(=O)N[C@@H](C)C(=O)NCC(=O)N[C@@H](Cc1ccc(O)cc1)C(=O)N[C@@H](CC(C)C)C(=O)N[C@@H](CC(C)C)C(=O)NCC(=O)NCCCC[C@H](N)C(=O)N[C@H](C(=O)N[C@@H](CC(N)=O)C(=O)N[C@@H](CC(C)C)C(=O)N[C@@H](CCCCN)C(=O)N[C@@H](C)C(=O)N[C@@H](CC(C)C)C(=O)N[C@@H](C)C(=O)N[C@@H](C)C(=O)N[C@@H](CC(C)C)C(=O)N[C@@H](C)C(=O)N[C@@H](CCCCN)C(=O)N[C@@H](C)C(=O)N[C@H](C(=O)N[C@@H](CC(C)C)C(N)=O)[C@@H](C)CC)[C@@H](C)CC [NF412] (I: H-KINLKALAALAKAIL-NH2 / II: Arachidoyl-AGYLLG; amide I:1-II:C)	36 759 RLU	393 000 000 RLU/mg	–	–
NF72: SEQ ID NO: 15; HHHHHHYHHGO*ILLKALKALAKAIL; control/comparator construct [reference compound]	–	78 023 RLU/mg	–	–
